Results on 1 molecule are retold here after US9321773B2, “Compounds” (Respivert Ltd, priority 2009, dated 2016).

SMILES strings stand for the structures. Entries after “also recorded” stand apart in the source; their conditions may differ. Where two headings read alike, the source gives them in different places.

One series deals with recombinant PI3 kinase δ (Homo sapiens (Human), UniProt O00329). Kind of series: Enzyme Inhibition Assay (HTRF PI3K enzyme assay, TR-FRET). The format is biochemical. An outline of the steps:
(§1)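 Recombinant PI3Kα, δ or γ incubated with PIP2 substrate and compound for 2 hr at RT. Stop solution with biotin-PIP3 and GST-GRP1 PH domain/Eu-anti-GST/SA-APC detection mix added, then 15-18 hr at RT. PIP3 formed reduces the TR-FRET signal.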
(TR-FRET usually uses a lanthanide donor and a delayed reading to cut background.)

Another series concerns the target recombinant PI3 kinase γ (Homo sapiens (Human), UniProt P48736). The description is as above. It counts as biochemical. An outline of the steps:
as §1

In another series the target is recombinant PI3 kinase α (Homo sapiens (Human), UniProt P42336). The description is as above. The format is biochemical. An outline of the steps: as §1
recombinant PI3 kinase α, sequence (P42336 whole entry): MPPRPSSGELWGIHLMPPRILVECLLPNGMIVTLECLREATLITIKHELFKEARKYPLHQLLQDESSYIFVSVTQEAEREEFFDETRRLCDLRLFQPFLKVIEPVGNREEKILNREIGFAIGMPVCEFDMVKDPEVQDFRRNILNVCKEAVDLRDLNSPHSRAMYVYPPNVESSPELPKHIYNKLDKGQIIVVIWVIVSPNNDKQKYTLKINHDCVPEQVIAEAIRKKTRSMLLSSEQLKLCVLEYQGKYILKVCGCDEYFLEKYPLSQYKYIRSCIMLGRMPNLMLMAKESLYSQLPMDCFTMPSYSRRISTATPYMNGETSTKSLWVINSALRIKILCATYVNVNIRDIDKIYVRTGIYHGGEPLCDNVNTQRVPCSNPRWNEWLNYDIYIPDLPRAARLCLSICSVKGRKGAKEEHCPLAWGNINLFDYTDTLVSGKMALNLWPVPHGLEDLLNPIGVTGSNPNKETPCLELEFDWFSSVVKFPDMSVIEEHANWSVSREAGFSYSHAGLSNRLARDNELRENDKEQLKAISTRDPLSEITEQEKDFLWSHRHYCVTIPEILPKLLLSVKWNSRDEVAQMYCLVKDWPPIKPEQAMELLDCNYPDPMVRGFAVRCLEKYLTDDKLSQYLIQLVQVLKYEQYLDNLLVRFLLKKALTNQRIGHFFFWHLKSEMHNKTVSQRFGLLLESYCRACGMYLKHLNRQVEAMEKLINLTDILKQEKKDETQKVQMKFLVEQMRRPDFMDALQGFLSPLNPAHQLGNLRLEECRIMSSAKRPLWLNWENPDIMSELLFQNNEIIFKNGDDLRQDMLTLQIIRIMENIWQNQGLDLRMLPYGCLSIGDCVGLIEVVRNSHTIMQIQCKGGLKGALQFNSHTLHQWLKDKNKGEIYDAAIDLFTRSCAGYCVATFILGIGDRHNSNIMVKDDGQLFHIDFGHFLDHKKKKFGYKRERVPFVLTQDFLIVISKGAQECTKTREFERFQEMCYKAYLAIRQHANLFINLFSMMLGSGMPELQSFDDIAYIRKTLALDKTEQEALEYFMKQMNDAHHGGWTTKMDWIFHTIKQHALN
recombinant PI3 kinase α, sequence (P27986 whole entry partner): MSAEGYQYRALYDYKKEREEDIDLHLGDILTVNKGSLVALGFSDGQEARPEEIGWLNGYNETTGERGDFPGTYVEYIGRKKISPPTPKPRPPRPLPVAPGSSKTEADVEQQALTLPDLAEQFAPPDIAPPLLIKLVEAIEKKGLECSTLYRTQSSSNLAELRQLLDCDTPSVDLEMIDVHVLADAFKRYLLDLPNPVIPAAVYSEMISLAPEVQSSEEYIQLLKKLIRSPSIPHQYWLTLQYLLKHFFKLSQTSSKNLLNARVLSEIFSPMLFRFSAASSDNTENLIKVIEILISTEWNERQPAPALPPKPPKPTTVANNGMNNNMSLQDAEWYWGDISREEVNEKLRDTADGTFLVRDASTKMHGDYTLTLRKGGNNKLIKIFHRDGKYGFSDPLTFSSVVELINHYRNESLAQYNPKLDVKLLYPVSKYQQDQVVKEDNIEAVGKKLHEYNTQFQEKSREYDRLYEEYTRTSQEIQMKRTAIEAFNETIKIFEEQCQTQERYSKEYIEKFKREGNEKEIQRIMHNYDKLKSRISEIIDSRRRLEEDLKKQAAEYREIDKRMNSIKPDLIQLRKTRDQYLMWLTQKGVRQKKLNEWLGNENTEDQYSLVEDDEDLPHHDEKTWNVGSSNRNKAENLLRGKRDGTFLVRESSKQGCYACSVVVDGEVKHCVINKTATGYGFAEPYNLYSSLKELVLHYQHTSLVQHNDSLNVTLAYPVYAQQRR
Series [1] concerns cigarette smoke-induced pulmonary macrophage and neutrophil influx. The series is described as follows: Cigarette Smoke Model. The format is in vivo, mouse. To be noted: A/J mice. As to the method: A/J mice (males, 5 weeks old) were exposed to cigarette smoke (4% cigarette smoke, diluted with compressed air) for 30 min/day for 11 days using a Tobacco Smoke Inhalation Experiment System for small animals (Model SIS-CS; Sibata Scientific Technology, Tokyo, Japan). Test substances were given intra-nasally (35 μL of solution in 50% DMSO/PBS) and therapeutically twice daily for 3 days after the final cigarette smoke exposure. Twelve hr after the last dosing, animals were anesthetized, the trachea cannulated and bronchoalveolar lavage fluid (BALF) was collected. The numbers of alveolar macrophages and neutrophils were determined by FACS analysis (EPICS® ALTRA II, Beckman Coulter, Inc., Fullerton, Calif., USA) using anti-mouse MOMA2 antibody (macrophage) or anti-mouse 7/4 antibody (neutrophil).

Series [2] relates to H2O2 induced pAkt in D-U937 cells. Kind of series: PI3Kδ Cell Based Assay (H2O2 induced pAkt). The settings on record: Homo sapiens, dU937. An outline of the steps: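 U937 cells differentiated to macrophage-type cells with PMA (100 ng/mL, 48 to 72 hr), then stimulated with H2O2. pAkt and total Akt detected by antibody-based immunoassay. Ratio of pAkt to total Akt signal used; IC50 from concentration-response curves of serially diluted compounds.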

Series [3] concerns PMA-differentiated U937 cells. Kind of series: MTT Assay (cell viability). It counts as cell-based, Human. The settings on record: percentage loss of cell viability. An outline of the steps:
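Differentiated U937 cells treated with compound for 4 hr (5% FCS) or 24 hr (10% FCS), then given MTT for 1 hr; formazan dissolved in DMSO and absorbance read at 550 nm. Viability loss expressed as % versus 0.5% DMSO vehicle.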

For series [4], the system named is LPS induced neutrophilia in mouse lung. The series is described as follows: LPS-Induced Neutrophilia in the Mouse. The settings on record: intra-tracheal dosing before LPS challenge, mouse. The format is in vivo. As to the method: Non-fasted mice were dosed by the intra-tracheal route with either vehicle, or the test substance at the time points (“pre-dose”) indicated with respect to the start of LPS treatment. At T=0, mice were placed into an exposure chamber and exposed to LPS. Eight hr after LPS challenge, animals were anesthetized, the trachea cannulated and BALF extracted by infusing and withdrawing 1 mL of PBS into the lungs via a tracheal catheter. Total and differential white cell counts in the BALF samples were measured using a Neubaur haemocytometer. Cytospin smears of the BALF samples were prepared by centrifugation at 200 rpm for 5 min at RT and stained using a DiffQuik stain system (Dade Behring). Cells were counted using oil immersion microscopy.

A short description of series [5]: Stereochemical analysis by chiral stationary phase HPLC (atropisomerism). The format is physicochemical. The settings on record: chiral stationary phase HPLC (16 different conditions for the examples).

recombinant PI3 kinase δ, sequence (O00329 whole entry, the tested form may be a part): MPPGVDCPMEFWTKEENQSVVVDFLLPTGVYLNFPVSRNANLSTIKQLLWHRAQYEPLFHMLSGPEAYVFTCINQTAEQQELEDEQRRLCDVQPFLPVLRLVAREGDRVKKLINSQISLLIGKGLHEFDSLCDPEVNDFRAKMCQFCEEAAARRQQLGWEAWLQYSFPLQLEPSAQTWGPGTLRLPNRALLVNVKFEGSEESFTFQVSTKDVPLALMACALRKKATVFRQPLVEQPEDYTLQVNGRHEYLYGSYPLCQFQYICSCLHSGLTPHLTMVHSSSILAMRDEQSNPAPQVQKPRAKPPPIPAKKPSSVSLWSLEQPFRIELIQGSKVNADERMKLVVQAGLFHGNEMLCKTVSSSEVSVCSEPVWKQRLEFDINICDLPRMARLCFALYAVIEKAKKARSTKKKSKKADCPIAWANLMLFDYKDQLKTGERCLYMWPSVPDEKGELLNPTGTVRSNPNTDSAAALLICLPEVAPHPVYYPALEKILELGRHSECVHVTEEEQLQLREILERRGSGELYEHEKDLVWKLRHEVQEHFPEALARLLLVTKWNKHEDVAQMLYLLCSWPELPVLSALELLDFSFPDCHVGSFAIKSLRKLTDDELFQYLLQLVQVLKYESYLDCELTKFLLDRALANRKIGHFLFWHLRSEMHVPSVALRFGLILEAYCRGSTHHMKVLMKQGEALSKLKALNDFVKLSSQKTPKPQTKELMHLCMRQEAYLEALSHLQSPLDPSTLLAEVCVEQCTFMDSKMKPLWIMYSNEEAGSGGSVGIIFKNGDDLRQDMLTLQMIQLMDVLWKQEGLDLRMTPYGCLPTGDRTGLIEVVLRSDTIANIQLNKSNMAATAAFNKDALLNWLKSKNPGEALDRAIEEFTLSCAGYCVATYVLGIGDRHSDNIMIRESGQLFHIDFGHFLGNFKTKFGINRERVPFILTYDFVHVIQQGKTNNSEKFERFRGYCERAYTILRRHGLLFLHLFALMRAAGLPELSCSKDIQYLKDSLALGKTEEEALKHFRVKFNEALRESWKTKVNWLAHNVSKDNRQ
recombinant PI3 kinase δ, sequence (P27986 whole entry partner, the tested form may be a part): as the sequence (P27986 whole entry partner) above
recombinant PI3 kinase γ, sequence (P48736 whole entry): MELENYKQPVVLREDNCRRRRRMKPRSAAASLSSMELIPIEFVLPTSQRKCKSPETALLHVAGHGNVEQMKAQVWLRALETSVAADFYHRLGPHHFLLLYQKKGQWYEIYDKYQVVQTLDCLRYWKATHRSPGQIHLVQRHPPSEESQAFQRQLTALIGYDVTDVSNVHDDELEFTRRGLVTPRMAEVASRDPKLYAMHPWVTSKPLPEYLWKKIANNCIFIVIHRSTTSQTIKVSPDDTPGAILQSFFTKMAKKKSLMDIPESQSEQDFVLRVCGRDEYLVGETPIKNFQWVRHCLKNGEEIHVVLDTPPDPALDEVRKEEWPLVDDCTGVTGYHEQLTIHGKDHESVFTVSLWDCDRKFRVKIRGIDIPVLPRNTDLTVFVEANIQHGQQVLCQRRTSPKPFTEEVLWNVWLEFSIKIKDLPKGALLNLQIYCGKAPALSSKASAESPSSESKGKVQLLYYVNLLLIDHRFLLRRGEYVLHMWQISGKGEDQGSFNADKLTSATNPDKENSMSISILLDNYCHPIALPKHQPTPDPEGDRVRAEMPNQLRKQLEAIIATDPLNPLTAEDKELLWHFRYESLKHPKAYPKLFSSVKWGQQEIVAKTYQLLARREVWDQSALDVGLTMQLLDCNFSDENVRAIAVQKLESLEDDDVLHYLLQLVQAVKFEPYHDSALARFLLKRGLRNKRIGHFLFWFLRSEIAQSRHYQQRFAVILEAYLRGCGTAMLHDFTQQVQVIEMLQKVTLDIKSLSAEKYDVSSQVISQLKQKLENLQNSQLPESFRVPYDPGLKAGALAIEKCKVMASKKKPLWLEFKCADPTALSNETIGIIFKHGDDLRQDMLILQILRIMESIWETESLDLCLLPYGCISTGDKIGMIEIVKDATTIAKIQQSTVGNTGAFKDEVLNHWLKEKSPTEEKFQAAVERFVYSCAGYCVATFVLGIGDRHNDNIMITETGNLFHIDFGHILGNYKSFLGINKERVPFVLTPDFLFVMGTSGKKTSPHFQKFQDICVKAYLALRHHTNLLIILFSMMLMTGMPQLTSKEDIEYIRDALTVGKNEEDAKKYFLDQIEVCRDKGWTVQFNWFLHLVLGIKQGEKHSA

In the case of `C#Cc1cccc2nc(Cn3nc(-c4cccc(O)c4)c4c(N)ncnc43)n(Cc3ccccc3Cl)c(=O)c12` [Example 1, 2-((4-Amino-3-(3-hydroxyphenyl)-1H-pyrazolo[3,4-d]pyrimidin-1-yl)methyl)-3-(2-chlorobenzyl)-5-ethynylquinazolin-4(3H)-one], the IC50 at recombinant PI3 kinase δ (activity range, read-out: PI3 Kinase Inhibition IC50 values at stated Isozyme δ) is below 50 nM; on recombinant PI3 kinase δ (read-out: PI3 Kinase Inhibition IC50 values at stated Isozyme (nM) δ) it was 7 nM; at recombinant PI3 kinase γ (activity range, read-out: PI3 Kinase Inhibition IC50 values at stated Isozyme γ), 50 to 1000 nM; at recombinant PI3 kinase γ (read-out: PI3 Kinase Inhibition IC50 values at stated Isozyme (nM) γ), 234 nM; on recombinant PI3 kinase α (activity range, read-out: PI3 Kinase Inhibition IC50 values at stated Isozyme α), 50 to 1000 nM; on recombinant PI3 kinase α (read-out: PI3 Kinase Inhibition IC50 values at stated Isozyme (nM) α), 199 nM. Also, the IC50 in series [2] (activity range, D-U937 cells, read-out: Cellular Activity IC50 values (H2O2 induced pAkt D-U937 Cells)) is below 10 nM; in series [2] (read-out: Cellular Activity IC50 values (H2O2 induced pAkt (nM) D-U937 Cells)), 1.1 nM. Moreover, the “anti-inflammatory activity when co-administered with fluticasone propionate” value in series [1] (co-administered with fluticasone propionate at a dose which lacks effect as monotherapy) is “marked enhancement of anti-inflammatory activity”. For the same molecule, the “anti-inflammatory activity (BALF neutrophils and alveolar macrophages), monotherapy” value in series [1] (monotherapy, twice daily for 3 days after final smoke exposure) was “inhibition; also recorded: possesses anti-inflammatory activity”. For the same molecule, the “Cell Viability MTT Assay in D-U937 cells at 4 hr” value in series [3] (4 hr in 5% FCS) is given as “− (− <30%)”. Further, the “Cell Viability MTT Assay in D-U937 cells at 24 hr” value in series [3] (24 hr in 10% FCS) was “− (− <30%)”. The “inhibition of LPS-induced neutrophilia (neutrophil influx into the lung), in words” value in series [4] is on record as “Inhibition of LPS-induced neutrophilia”. Further, in series [5], the “atropisomerism by chiral stationary phase HPLC” value is recorded as “no evidence for atropisomerism was observed”.

Usually IC50 stands for the point on the concentration scale where inhibition reaches its midpoint.
